According to patent US9890152B2 (Genentech, Inc., priority 2012, dated 2018):
pEC50: −log10 of the molar value.

The molecules below were run against T1, phosphor-EGFR in H1975(L585R/T790M) mutant EGFR expressing cells (Homo sapiens, UniProt P00533, L858R/T790M) (assay: H1975 pEGFR MSD cellular assay). Conditions: NCI-H1975 cells, serum starved, 1 hour compound incubation, pEGFR Tyr1068 MSD.
T1 construct: host or cells: NCI-H1975
Assay type: cell-based
Procedure: H1975 pEGFR MSD Cellular Assays Background:
These assays are intended for determining cellular. […] (Meso Scale Discovery Catalog# N31CB-1).
All cell culture reagents were purchased from Invitrogen/Gibco. Cells are cultured at 37° C. at 5% CO2 and split as recommended by ATCC.
Cell Plating and Serum Starvation:
After six hours, culture medium is aspirated and replaced with serum-free culture medium. Cells are then incubated with the serum-free medium overnight at 37° C. and 5% CO2.
The following day, test compounds are serially diluted in dimethyl sulfoxide (DMSO) and added to cells in serum free medium (final DMSO concentration 0.5%). Assay plates are then incubated for 1 hour at 37° C. and 5% CO2. Following 1 hour of compound incubation cells are then lysed and processed as per the MSD pEGFR assay kit protocol. Cell lysates are added to assay plates pre-coated with antibodies against phosphorylated EGFR. Phosphorylated EGFR in samples are allowed to bind to the capture antibodies overnight at 4° C. The detection antibody (anti-total EGFR, labeled with an electrochemiluminescent SULFO-TAG) is added to the bound lysate and incubated for 1 hour at room temperature. The MSD Read Buffer is added such that when a voltage is applied to the plate electrodes, the labels bound to the electrode surface emit light. The MSD Sector Instrument measures the intensity of the light, and quantitatively measures the amount of phosphorylated-EGFR in the sample. Percent inhibition of EGFR phosphorylation by varying concentrations of test compounds is calculated relative to untreated controls. EC50 values are calculated using the 4 parameter logistic nonlinear regression dose-response model.

T1 sequence (P00533 25-1210 T790M/L858R): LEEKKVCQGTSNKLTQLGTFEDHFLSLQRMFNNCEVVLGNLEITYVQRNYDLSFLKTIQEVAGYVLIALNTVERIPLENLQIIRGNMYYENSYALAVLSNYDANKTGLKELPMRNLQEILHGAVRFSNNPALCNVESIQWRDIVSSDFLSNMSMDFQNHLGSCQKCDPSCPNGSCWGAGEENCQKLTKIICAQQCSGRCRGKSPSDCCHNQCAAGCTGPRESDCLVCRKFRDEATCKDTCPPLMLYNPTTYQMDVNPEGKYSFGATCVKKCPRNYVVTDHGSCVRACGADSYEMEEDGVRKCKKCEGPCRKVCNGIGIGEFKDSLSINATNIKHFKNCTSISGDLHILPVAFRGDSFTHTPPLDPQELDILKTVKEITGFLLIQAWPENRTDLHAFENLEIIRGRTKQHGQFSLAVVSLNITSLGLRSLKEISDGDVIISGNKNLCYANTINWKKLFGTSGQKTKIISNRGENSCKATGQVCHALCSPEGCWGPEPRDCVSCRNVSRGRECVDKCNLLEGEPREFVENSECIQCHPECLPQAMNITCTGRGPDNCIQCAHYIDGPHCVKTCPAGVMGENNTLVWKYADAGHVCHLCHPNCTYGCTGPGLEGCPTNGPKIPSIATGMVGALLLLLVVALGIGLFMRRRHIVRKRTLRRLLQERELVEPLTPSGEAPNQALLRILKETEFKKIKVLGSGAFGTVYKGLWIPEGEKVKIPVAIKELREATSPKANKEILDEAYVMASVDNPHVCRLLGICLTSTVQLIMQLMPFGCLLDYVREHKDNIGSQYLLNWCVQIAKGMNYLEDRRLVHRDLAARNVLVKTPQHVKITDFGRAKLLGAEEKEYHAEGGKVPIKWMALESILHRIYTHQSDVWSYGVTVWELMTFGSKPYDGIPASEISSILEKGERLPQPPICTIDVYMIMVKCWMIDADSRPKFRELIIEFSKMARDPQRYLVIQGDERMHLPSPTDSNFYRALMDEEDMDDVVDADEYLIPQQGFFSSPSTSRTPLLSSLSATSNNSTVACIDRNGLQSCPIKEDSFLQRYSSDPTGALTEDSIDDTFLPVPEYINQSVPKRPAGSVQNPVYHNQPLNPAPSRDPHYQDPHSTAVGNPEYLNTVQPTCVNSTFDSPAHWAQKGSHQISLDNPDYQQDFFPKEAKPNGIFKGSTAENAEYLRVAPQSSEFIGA

Compound | pEC50
CC(C)n1cc(C2CNC(=O)C2)c2cnc(Nc3ccnc(-c4cnn(S(=O)(=O)C5CC5)c4)n3)cc21 (centres unmarked) [Example 256, 4-(6-(2-(1-(Cyclopropylsulfonyl)-1H-pyrazol-4-yl)pyrimidin-4-ylamino)-1-isopropyl-1H-pyrrolo[3,2-c]pyridin-3-yl)pyrrolidin-2-one] | 5.98
CC(C)n1c(C2CCCO2)nc2cnc(Nc3ccnc(-c4cnn(S(=O)(=O)C5CC5)c4)n3)cc21 (racemic) [Example 565, (±)-[2-(1-Cyclopropanesulfonyl-1H-pyrazol-4-yl)-pyrimidin-4-yl]-[1-isopropyl-2-(tetrahydro-furan-2-yl)-1H-imidazo[4,5-c]pyridin-6-yl]amine] | 5.94
COc1ccc(-c2nccc(Nc3cc4c(cn3)ncn4C(C)C)n2)cn1 [Example 54, 1-Isopropyl-N-(2-(6-methoxypyridin-3-yl)pyrimidin-4-yl)-1H-imidazo[4,5-c]pyridin-6-amine] | 5.45
COC1(CN)CCN(c2nccc(Nc3cc4c(cn3)nc(C)n4C(C)C)n2)CC1 [Example 271, [2-(4-Aminomethyl-4-methoxypiperidin-1-yl)pyrimidin-4-yl](1-isopropyl-2-methyl-1H-imidazo[4,5-c]pyridin-6-yl)amine] | 5.24
CC1(C)COCc2nc3cnc(Nc4ccnc(-c5cnn(S(=O)(=O)C6CC6)c5)n4)cc3n21 [Example 538, [2-(1-Cyclopropanesulfonyl-1H-pyrazol-4-yl)-pyrimidin-4-yl]-(4,4-dimethyl-3,4-dihydro-1H-2-oxa-4a,7,9-triazafluoren-6-yl)amine] | 6.08

Continued by rising pEC50, values first:

pEC50 | Compound
5.74 | O=S(=O)(C1CC1)n1cc(-c2nccc(Nc3cc4c(cn3)nc(CO)n4-c3ccccc3)n2)cn1 [Example 475, (6-(2-(1-(cyclopropylsulfonyl)-1H-pyrazol-4-yl)pyrimidin-4-ylamino)-l-phenyl-1H-imidazo[4,5-c]pyridin-2-yl)methanol]
5.87 | Cc1nc2cnc(Nc3ccnc(-c4cnn(CC5CC5)c4)n3)cc2n1C(C)C [Example 395, N-(2-(1-(cyclopropylmethyl)-1H-pyrazol-4-yl)pyrimidin-4-yl)-1-isopropyl-2-methyl-1H-imidazo[4,5-c]pyridin-6-amine]
6.08 | COC1(CO)CCN(c2nccc(Nc3cc4c(cn3)c(-c3cnn(C(C)(C)C(N)=O)c3)cn4C(C)C)n2)CC1 [Example 445, 2-(4-(6-(2-(4-(hydroxymethyl)-4-methoxypiperidin-1-yl)pyrimidin-4-ylamino)-1-isopropyl-1H-pyrrolo[3,2-c]pyridin-3-yl)-1H-pyrazol-1-yl)-2-methylpropanamide]
6.38 | CC(C)n1c(OCCO)nc2cnc(Nc3ccnc(-c4cnn(S(=O)(=O)C5CC5)c4)n3)cc21 [Example 282, 2-{6-[2-(1-Cyclopropanesulfonyl-1H-pyrazol-4-yl)pyrimidin-4-ylamino]-1-isopropyl-1H-imidazo[4,5-c]pyridin-2-yloxy}ethanol]
6.74 | CC(C)n1cc(C(N)=O)c2cnc(Nc3ccnc(-c4cnn(S(=O)(=O)C5CC5)c4)n3)cc21 [Example 51, 6-((2-(1-(Cyclopropylsulfonyl)-1H-pyrazol-4-yl)pyrimidin-4-yl)amino)-1-isopropyl-1H-pyrrolo[3,2-c]pyridine-3-carboxamide]
6.75 | CC(C)n1cc(C(=O)NC2COC2)c2cnc(Nc3ccnc(-c4cnn(S(=O)(=O)N(C)C)c4)n3)cc21 [Example 378, 6-((2-(1-(N,N-dimethylsulfamoyl)-1H-pyrazol-4-yl)pyrimidin-4-yl)amino)-1-isopropyl-N-(oxetan-3-yl)-1H-pyrrolo[3,2-c]pyridine-3-carboxamide]
